Assay results published in patent US20250228818A1, “PHARMACEUTICAL COMBINATION CONTAINING CAPSID PROTEIN INHIBITOR AND REVERSE TRANSCRIPTASE INHIBITOR” (priority 2021, published 2025).

System: rAAV8-1.3HBV
Test: AAV/HBV mouse model experiment (serum HBV DNA)
Type: in vivo, mouse (male, C57BL/6)
Details: mean ± standard error; for HBV DNA in mouse serum, day 7 / HBV DNA in mouse serum, day 14 / HBV DNA in mouse serum, day 21 / HBV DNA in mouse serum, day 28: i.g. QD day 0-27; for HBV DNA in mouse serum, day −2: day −2 (before first administration)
Protocol: rAAV8-1.3HBV (source: Beijing FivePlus Molecular Medicine Institute, titer: 1×10^12 v·g/mL) was used to establish an AAV/HBV mouse model (species: male, C57BL/6), and the mice were randomized into groups.
The compound of formula I was dissolved in DMSO, and PEG-400 was added to prepare a 1 mg/mL clear solution, which was then gradually diluted with the vehicle to 0.3 mg/mL, 0.1 mg/mL, and 0.03 mg/mL. After preparation, the dilutions were stored at room temperature.
Entecavir was dissolved in DMSO to prepare a 1 mg/mL solution, which was then gradually 1000-fold diluted with normal saline (NS) to 0.001 mg/mL. The dilution was aliquoted at 1 mL/tube to serve as a stock solution and stored in a freezer at −20° C. Each day, one tube was taken, and the solution in the tube was 10-fold diluted with NS to achieve the required administration concentration of 0.0001 mg/mL for daily administration.
rAAV8-1.3HBV (type D, ayw) was purchased from Beijing FivePlus Gene Technology Co., Ltd., with a titer of 1×10^12 v·g/mL.
Hepatitis B virus nucleic acid assay kit (Sansure Biotech Inc.), high-speed refrigerated centrifuge (Sorvall Legend), and real-time fluorescent quantitative PCR instrument (TL988).
AAV-HBV mouse model: rAAV8-1.3HBV was prepared into a solution with a concentration of 5×10^11 v·g/mL by sterile PBS in advance before injection. Each mouse was injected with 200 μL of the solution via the tail vein, with 1×10^11 v·g per mouse.
Blood sampling before grouping: On day 14 after the virus injection, all infected mice were subjected to blood sampling (approximately 100 μL per mouse) via the orbital vein for serum collection. After the whole blood was left to stand at room temperature for 30 min, serum was collected by centrifugation at 3000 rpm at 4° C. for 10 min. The collected serum was stored at −80° C. for HBV DNA, HBeAg and HBsAg detection.
Compound treatment: All mice were subjected to intragastric administration with the solvent or the compound. The day of the first administration was set as day 0 of the experiment, and the duration of administration was from day 0 to day 27. Entecavir was administered once daily (QD), and the compound of formula I was administered […]. The administration volume was 10 mL/kg.
The experimental method referred to the instructions of the hepatitis B virus nucleic acid assay kit. 5 μL of the nucleic acid release agent was added into each PCR reaction tube, and then 5 μL of the test serum, a negative control, a positive control and a quantitative reference substance were added separately. The mixture was then lysed for 10 min, and then 40 μL of PCR-mix was added, achieving a total volume of 50 μL in the system. Reaction conditions: 50° C. for 2 min, 1 cycle; 94° C. for 5 min, 1 cycle; 94° C. for 15 s, 57° C. for 30 s, 45 cycles; 25° C. for 10 s, 1 cycle. 2.4. Results in Tables 4-1 and 4-2

[1] = compound of formula I 10 mg/kg (iv), with entecavir 0.001 mg/kg (vi)
[2] = entecavir 0.001 mg/kg (ii), compound of formula I 1 mg/kg (iii), both (v)
[3] = groups: entecavir 0.001 mg/kg (ii), compound of formula I 1 mg/kg (iii), both (v)

| SMILES | HBV DNA in mouse serum, day 7 [1] | HBV DNA in mouse serum, day 7 [2] | HBV DNA in mouse serum, day 14 [1] | HBV DNA in mouse serum, day 14 [2] | HBV DNA in mouse serum, day 21 [1] | HBV DNA in mouse serum, day 21 [2] | HBV DNA in mouse serum, day 28 [1] | HBV DNA in mouse serum, day 28 [2] | HBV DNA in mouse serum, day 35 (day 35 (administration ended day 27), compound of formula I 10 mg/kg (iv), with entecavir 0.001 mg/kg (vi)) | HBV DNA in mouse serum, day 42 (day 42 (administration ended day 27), compound of formula I 10 mg/kg (iv), with entecavir 0.001 mg/kg (vi)) | HBV DNA in mouse serum, day −2 (groups: compound of formula I 10 mg/kg (iv), with entecavir 0.001 mg/kg (vi)) | HBV DNA in mouse serum, day −2 [3] |
| --- | --- | --- | --- | --- | --- | --- | --- | --- | --- | --- | --- | --- |
| Cc1c(C(=O)Nc2ccc(F)c(C#N)c2)c(C)n(C)c1C(=O)C(=O)N[C@@H](C)C(F)(F)F [Compound of formula I, (S)—N-(3-cyano-4-fluorophenyl)-1,2,4-trimethyl-5-(2-oxo-2-((1,1,1-trifluoropropan-2-yl)amino)acetyl)-1H-pyrrole-3-carboxamide] | 4.72 ± 0.86 log10, copy/μL | 6.16 ± 0.36 log10, copy/μL | 3.97 ± 0.45 log10, copy/μL | 5.48 ± 0.34 log10, copy/μL | 3.97 ± 0.31 log10, copy/μL | 5.23 ± 0.33 log10, copy/μL | 3.75 ± 0.35 log10, copy/μL | 5.42 ± 0.38 log10, copy/μL | 3.77 ± 0.45 log10, copy/μL | 5.18 ± 0.74 log10, copy/μL | 7.97 ± 0.22 log10, copy/μL | 7.71 ± 0.27 log10, copy/μL |
| C=C1[C@H](CO)[C@@H](O)C[C@@H]1n1cnc2c(=O)[nH]c(N)nc21 [Entecavir, 2-amino-9-[(1S,3R,4S)-4-hydroxy-3-hydroxymethyl-2-methylenecyclopentyl]-1,9-dihydro-6H-purin-6-one, reference compound] |  | 5.17 ± 0.54 log10, copy/μL |  | 5.30 ± 0.30 log10, copy/μL |  | 5.22 ± 0.46 log10, copy/μL |  | 5.46 ± 0.45 log10, copy/μL |  |  |  | 7.78 ± 0.28 log10, copy/μL |
